# Patent US11484258B2, “Free radical consumption speed information acquisition method and NASH determination method” (KYUSHU UNIVERSITY, NATIONAL UNIVERSITY CORPORATION, priority 2016, dated 2022)
# Where two headings read alike, the source gives them in different places.
# How the values were obtained:
# liver = test: in vivo DNP-MRI of the liver after intravenous CmP: redox metabolic rate (free radical consumption speed); parameters: species or system mouse
# Source text: C57BL6 mice (female, 5 weeks old) were purchased from Charles River Laboratories Japan, Inc. (Yokohama, Japan), and were acclimated for 1 week before starting the experiment. Five mice were housed per cage and were fed with a methionine-choline deficient diet or a normal diet in a room where the temperature and the circadian rhythm were controlled. Each of a methionine-choline deficient diet group (NASH model mouse group) and a normal diet group (normal mouse group) was divided into 5 groups to be subjected to DNP-MRI measurement at 1, 2, 4, 6 and 8 weeks, and blood collection, autopsy and liver tissue collection were performed to evaluate the pathological conditions.
# A mouse (NASH model mouse) was anesthetized with isoflurane (4% for introduction, 2% for maintenance) and was fixed, with a pressure-sensitive tape for skin, on a local detector for liver measurement (a surface coil) and a holder with the stomach side faced downward. The body temperature of the mouse was 37±1° C. during the experiment. The mouse was transferred to a DNP-MRI resonance apparatus and the apparatus was set such that the whole liver was a measurement target, and then, CmP (Carbamoyl-PROXYL, redox contrast agent) was intravenously injected into the NASH mode mouse, and the DRI-MRI measurement was started.
# TR: 1200 ms; TE: 25 ms; TEPR: 600 ms; number of phase-encoding gradient steps: 64; […]; FOV: 48 mm×48 mm; matrix size: 64×64 (in-plane resolution: 0.75 mm); slice thickness: 30 mm; number of average: 1; and scanning time: 79 s. OMRI data was analyzed by using Image J Software Package (http://rsb.info.nih.gov/ij/).
# Besides, the mouse group fed with the normal diet (the normal mouse group) was similarly subjected as a control to the DRI-MRI evaluation.
# With respect to the NASH model mouse group, the DNP-MRI measurement was performed 1 week (MCD1), 2 weeks (MCD2), 4 weeks (MCD4), 6 weeks (MCD6) and 8 weeks (MCD8) after feeding the methionine-choline deficient diet (MCD) was started, and the redox metabolic rate of the CmP radical in the liver was calculated.
# Also with respect to the normal mouse group, the DNP-MRI measurement was similarly performed 1 week (ND1), 2 weeks (ND2), 4 weeks (ND4), 6 weeks (ND6) and 8 weeks (ND8) after feeding the normal diet was started, and the redox metabolic rate of the CmP radical in the liver was calculated.
# [1] = tested on: homogenate solution of the liver; test: redox metabolism of CmP by liver homogenate solution, cytoplasmic and blood components (FIG. 7); conditions: KCN (mitochondrial electron transport chain inhibitor) added
# [2] = tested on: homogenate solution of the liver
compound,measurement,setting,value
"CC1(C)CC(C(N)=O)C(C)(C)N1[O] (stereo not shown) [CmP, Carbamoyl-PROXYL]",disappearance of the CmP (image intensity in region of interest),liver; NASH model mouse compared with normal mouse,significantly slower
same,redox metabolic rate (disappearing rate) in the liver,"liver; NASH model mouse group (methionine-choline deficient diet), from 1 week (MCD1), versus normal mouse",significant decrease
same,time after administration at which the CmP radical still remained,"liver; NASH model mouse, epigastrium DNP-MRI images, FIG. 3",13 min
same,time after administration at which the CmP radical had mostly disappeared,"liver; normal mice (control), epigastrium DNP-MRI images, FIG. 3",5.5 min
same,redox metabolism by a homogenate solution of the liver,[1],metabolism is stopped
same,reaction with a cytoplasmic component or a blood component,[2],minimally reacts
same,redox metabolism by a homogenate solution of the liver,[2],redox metabolized
